Literature values, collected in US20230210865A1, “MIDAZOLAM PREMIX FORMULATIONS AND USES THEREOF” (Baxter International, Inc., priority 2021, published 2023).
Where a name gives a salt, the structure may show the parent alone.

Cc1ncc2n1-c1ccc(Cl)cc1C(c1ccccc1F)=NC2 [Midazolam HCl, 8-chloro-6-(2-fluorophenyl)-1-methyl-4H-imidazo[1,5-a][1,4]benzodiazepine hydrochloride]
Onset time of sedative effects (after intramuscular administration in adults): about fifteen | Potency relative to diazepam (sedative agent, administered by injection): about twice
